These are literature values, as cited in article PMC6631257.

This series concerns CYP2D6.
Turning to `Fc1ccc([C@@H]2CCNC[C@H]2COc2ccc3c(c2)OCO3)cc1` [paroxetine], the CYP2D6 inhibitor strength entry was “strong”.

As to `CNCCC(Oc1ccc(C(F)(F)F)cc1)c1ccccc1` (stereo not drawn) [fluoxetine], the CYP2D6 inhibitor strength entry is “strong”.

Regarding `COc1ccc([C@@H]2Sc3ccccc3N(CCN(C)C)C(=O)[C@@H]2OC(C)=O)cc1` [diltiazem], the CYP2D6 inhibitor strength result is recorded as “weak inhibitor”.
